Experimental data: patent US11225645B2 (priority 2002, dated 2022)
Entries after “also recorded” stand apart in the source; their conditions may differ. Read-outs that look alike come from different tables or passages of the source.

Legend:
[1] = system: coenzyme-binding glucose dehydrogenase; assay: Inhibitor test, additives added to Enzymatic activity measurement method 1; format: biochemical, Aspergillus terreus
[2] = system: coenzyme-binding glucose dehydrogenase; assay: Substrate specificity and Km value, Enzymatic activity measurement method 1; format: biochemical, Aspergillus terreus; conditions: for Activity of the enzyme on the substrate (in words): summary of Tables 1 and 2
Method: Employing each of D-glucose and other substrates (each at 333 mM as a final concentration, except for D-cellobiose at 193 mM, D-trehalose and D-raffinose at 121 mM), the enzymatic activity of this enzyme was measured by the Enzymatic activity measurement method 1. The activity on each substrate is represented as a relative value to the activity of this enzyme on D-glucose being regarded as 100%, and shown in Table 1.
Similarly, the relative reactivities (enzymatic activity) on D-glucose and maltose each at two final concentrations, i.e. 550 mM and 100 mM, were measured. The results are represented as relative values based on the value on D-glucose.

[3] = additive 1 mM final concentration
[4] = substrate 333 mM final, activity on D-glucose = 100%
[5] = substrate 121 mM final, activity on D-glucose = 100%

Row | Molecule | Inhibition (%) [1, 3] | Inhibition (%) [1] | other results
1 | CC(C)(S)C(N)C(=O)O (racemic) [DL-Penicillamine] | 4.3% | – | –
2 | OC[C@H]1OC[C@H](O)[C@@H](O)[C@@H]1O [1,5-Anhydro-D-glucitol] | – | – | Relative activity (%) [2, 4]: 2%; Activity of the enzyme on the substrate (in words) [2]: lower activity; also recorded: weakly
3 | c1ccc(-c2ccccn2)nc1 [2,2′-Bipyridine] | 10.8% | – | –
4 | O=CC[C@@H](O)[C@H](O)[C@H](O)CO [2-Deoxy-D-glucose] | – | – | Relative activity (%) [2, 4]: 48%
5 | O=C(O)c1ccccc1[N+](=O)[O-] [2-Nitrobenzoic acid] | 44.3% | – | –
6 | Oc1cccc2cccnc12 [8-Quinolinol] | – | 13.9% | –
7 | CC(O)C(=O)O.CCOc1ccc2nc3cc(N)ccc3c(N)c2c1 [Acrinol] | 29.0% | – | –
8 | O=[N+]([O-])[O-].[Ag+] [AgNO3] | – | 99.4% | Inhibitory effect (in words) [1]: highest; also recorded: inhibited potently
9 | [Cl][Al]([Cl])[Cl] [AlCl3] | – | 0% | –
10 | NN=C(N)N.O=S(=O)(O)O [Aminoguanidine sulfate] | – | 1.1% | –
11 | [Ba+2].[Cl-].[Cl-] [BaCl2] | 2.6% | – | –
12 | O=C(O)c1ccccc1 [Benzoic acid] | – | 0% | –
13 | [Ca+2].[Cl-].[Cl-] [CaCl2] | – | 5.7% | –
14 | [Cl][Cd][Cl] [CdCl2] | – | 0.8% | –
15 | O=C(O)CC(O)(CC(=O)O)C(=O)O [Citric acid] | 5.6% | – | –
16 | [Cl][Cu][Cl] [CuCl2] | – | 100% | Inhibitory effect (in words) [1]: highest; also recorded: inhibited potently
17 | N[C@@H]1CON=C1O [Cycloserine] | 3.6% | – | –
18 | NCCS [Cysteamine] | 9.8% | – | –
19 | OC[C@H]1O[C@@H](O[C@H]2[C@H](O)[C@@H](O)[C@H](O)O[C@@H]2CO)[C@H](O)[C@@H](O)[C@@H]1O [D-Cellobiose] | – | – | Relative activity (%) ([2]; substrate 193 mM final, activity on D-glucose = 100%): 2%; Activity of the enzyme on the substrate (in words) [2]: lower activity; also recorded: weakly

Row | Molecule | Inhibition (%) [1, 3] | Inhibition (%) [1] | other results
20 | O=C(CO)[C@@H](O)[C@H](O)[C@H](O)CO [D-Fructose] | – | – | Relative activity (%) [2, 4]: 0.86%; Activity of the enzyme on the substrate (in words) [2]: lower activity; also recorded: weakly
21 | O=C[C@H](O)[C@@H](O)[C@@H](O)[C@H](O)CO [D-Galactose] | – | – | Relative activity (%) [2, 4]: 1.2%; Activity of the enzyme on the substrate (in words) [2]: lower activity; also recorded: weakly
22 | O=P(O)(O)O[C@H]1O[C@H](CO)[C@@H](O)[C@H](O)[C@H]1O [D-Glucose-1-phosphate] | – | – | Relative activity (%) [2, 4]: 0.1> %; Activity of the enzyme on the substrate (in words) [2]: Almost no activity; also recorded: almost no effect
23 | O=C[C@H](O)[C@@H](O)[C@H](O)[C@H](O)COP(=O)(O)O [D-Glucose-6-phosphate] | – | – | Relative activity (%) [2, 4]: 1.1%; Activity of the enzyme on the substrate (in words) [2]: lower activity; also recorded: weakly
24 | O=C[C@H](O)[C@@H](O)[C@H](O)[C@H](O)CO [D-Glucose] | – | – | Km [2]: 49.7 mM; Relative activity (%) [2, 4]: 100%; Relative activity (%) ([2]; substrate final conc. 100 mM, D-glucose = 100%): 100%; Relative activity (%) ([2]; substrate final conc. 550 mM, D-glucose = 100%): 100%; Activity of the enzyme on the substrate (in words) [2]: higher activity; also recorded: potently
25 | OC[C@@H](O)[C@@H](O)[C@H](O)[C@H](O)CO [D-Mannitol] | – | – | Relative activity (%) [2, 4]: 0.1> %; Activity of the enzyme on the substrate (in words) [2]: Almost no activity; also recorded: almost no effect
26 | O=C[C@@H](O)[C@@H](O)[C@H](O)[C@H](O)CO [D-Mannose] | – | – | Relative activity (%) [2, 4]: 2.8%; Activity of the enzyme on the substrate (in words) [2]: lower activity; also recorded: weakly
27 | OC[C@H]1O[C@H](OC[C@H]2O[C@H](O[C@]3(CO)O[C@H](CO)[C@@H](O)[C@@H]3O)[C@H](O)[C@@H](O)[C@@H]2O)[C@H](O)[C@@H](O)[C@H]1O [D-Raffinose] | – | – | Relative activity (%) [2, 5]: 0.1> %; Activity of the enzyme on the substrate (in words) [2]: Almost no activity; also recorded: almost no effect
28 | O=C[C@H](O)[C@H](O)[C@H](O)CO [D-Ribose] | – | – | Relative activity (%) [2, 4]: 0.1> %; Activity of the enzyme on the substrate (in words) [2]: Almost no activity; also recorded: almost no effect
29 | OC[C@@H](O)[C@@H](O)[C@H](O)[C@@H](O)CO [D-Sorbitol] | – | – | Relative activity (%) [2, 4]: 0.1> %; Activity of the enzyme on the substrate (in words) [2]: Almost no activity; also recorded: almost no effect
30 | O=C(O)[C@@H](O)[C@H](O)C(=O)O [D-Tartaric acid] | 8.5% | – | –
31 | OC[C@H]1O[C@H](O[C@H]2O[C@H](CO)[C@@H](O)[C@H](O)[C@H]2O)[C@H](O)[C@@H](O)[C@@H]1O [D-Trehalose] | – | – | Relative activity (%) [2, 5]: 1.7%; Activity of the enzyme on the substrate (in words) [2]: lower activity; also recorded: weakly
32 | O=C(O)CN(CCN(CC(=O)O)CC(=O)O)CC(=O)O [EDTA] | – | 0.4% | –
33 | [Cl][Fe]([Cl])[Cl] [FeCl3] | – | 25.0% | –
34 | O=C(O)/C=C/C(=O)O [Fumaric acid] | 3.4% | – | –
35 | OO [H2O2] | – | 1.7% | –
36 | [Cl][Hg][Cl] [HgCl2] | 100% | – | Inhibitory effect (in words) ([1]; additive 1 mM final concentration, listed as Hg^2+): highest; also recorded: inhibited potently
37 | O=C(O)CI [Iodoacetic acid] | – | 9.5% | –
38 | [Cl-].[Li+] [LiCl] | 0.9% | – | –

Row | Molecule | Inhibition (%) [1, 3] | Inhibition (%) [1] | other results
39 | O=C(O)/C=C\C(=O)O [Maleic acid] | 26.2% | – | –
40 | O=C(O)CC(O)C(=O)O (stereo not drawn) [Malic acid] | 8.1% | – | –
41 | O=C(O)C(O)C(O)C(=O)O (stereo not drawn) [Meso-tartaric acid] | 5.6% | – | –
42 | [Cl-].[Cl-].[Mg+2] [MgCl2] | – | 2.8% | –
43 | CCN1C(=O)C=CC1=O [N-Ethylmaleimide] | 1.8% | – | –
44 | [Cl-].[Na+] [NaCl] | – | 2.5% | –
45 | [N-]=[N+]=[N-].[Na+] [NaN3] | – | 0% | –
46 | [Cl][Ni][Cl] [NiCl2] | – | 16.5% | –
47 | [Cl][Pb][Cl] [PbCl2] | – | 2.7% | –
48 | Nc1ccc2cc3ccc(N)cc3nc2c1 [Proflavin] | 62.0% | – | –
49 | CCN(CC)CCCC(C)Nc1c2ccc(Cl)cc2nc2ccc(OC)cc12 (stereo not drawn) [Quinacrine] | 5.0% | – | –
50 | [Cl][Sn][Cl] [SnCl2] | – | 45.5% | –
51 | O=S(=O)([O-])c1cc(O)c(O)c(S(=O)(=O)[O-])c1.[Na+].[Na+] [Tirone] | – | 2.5% | –
52 | NC(N)=O [Urea] | 1.9% | – | –
53 | [Cl-].[Cl-].[Zn+2] [ZnCl2] | – | 0% | –
54 | Acriflavine | 49.0% | – | –
55 | CoCl2 | – | 7.0% | –
56 | TritonX-100 | 6.2% | – | –
